Drawing on paper PMC11748363, “Antimicrobial and Antiproliferative Properties of 2‐Phenyl‐N‐(Pyridin‐2‐yl)acetamides” (Chemical Biology & Drug Design, 2025), this text covers MIC and IC50 for four compounds.

The structures appear in SMILES notation. ≈ marks a conversion by molar mass, not a printed value. Read-outs that look alike come from different tables or passages of the source. A value given as a limit tells only on which side of the number the result lay.

Assay [1] relates to Mycolicibacterium aurum DSM 43999. The assay can be described thus: Antimycobacterial microdilution broth MIC (resazurin), M. aurum. Type of assay: cell-based. As to conditions: DSM43999, read-out: MIC M. aurum.
The next assay has as its system HK‐2 cell line. The assay can be described thus: Cytotoxicity CellTiter 96, HK-2 normal cell line. The following applies: Homo sapiens, 24 h incubation. Type of assay: cell-based. How it is done: (§1) The cytotoxicity of final compounds was determined in human hepatocellular carcinoma cell line HepG2. Additional testing of selected compounds was performed on human epithelial kidney cancer cell line A498, human prostate cancer cell line PC‐3, human glioblastoma cell line U‐87 MG, and normal human proximal tubule cell line HK‐2.
1.4. Cytotoxicity determination […]
(§2) For subculturing, the cells were harvested after trypsin/EDTA (Sigma–Aldrich) treatment at 37 °C. To evaluate cytotoxicity, the cells treated with the tested substances were used as experimental groups whereas untreated HepG2 cells served as controls. The cells were seeded in density 10,000 cells per well in a 96 well plate. The next day the cells were treated with each of the tested substances dissolved in DMSO. The tested substances were […]
in triplicates according to their solubility. Simultaneously, the controls representing 100% cell viability, 0% cell viability (the cells treated with 10% DMSO), no cell control and vehiculum controls were also prepared in triplicates. After 24 h incubation in a humidified atmosphere containing 5% CO2 at […], the reagent from the kit CellTiter 96 AQueous One Solution Cell Proliferation Assay (CellTiter 96; PROMEGA, Fitchburg, USA) was added. After 2h incubation at 37 °C, absorbance of samples was recorded at 490 nm (TECAN, Infinita M200, Austria). A standard toxicological parameter IC50 was calculated by nonlinear regression from a semilogarithmic plot of incubation concentration versus percentage of absorbance relative to untre ated controls using GraphPad Prism 8 software.
(§3) Human epithelial kidney carcinoma A498 cell line, obtained from American Type Culture Collection (ATCC, Manassas, VA, USA, catalogue No.: HTB -44), was cultured in RPMI medium, Human normal kidney proximal tubule HK-2 cell line obtained from ATCC (ATCC, Manassas, VA, USA, catalogue No.:
CRL-2190) was cultured in DMEM High Glucose medium, Human prostate adenocarcinoma PC-3 cell line, obtained from ATCC (Manassas, VA, USA, catalogue No.: 90112714), was cultured in a Kaighn's Modification of Ham's F-12 Medium and human glioblastoma astrocytoma U-87 MG cell line, obtained from ECACC (ECACC, Salisbury, UK, catalogue No.: 89081402) was cultured in DMEM High Glucose medium. All cultures were supplemented with 10% fetal bovine serum, 1% non-essential amino acids (A498, HK-2 and U-87 MG), 1% sodium pyruvate (A498, HK-2 and U-87 MG) and 2 mM L-glutamine. […]
Simultaneously, the controls representing 100% cell viability, 0% cell viability (the cells treated with 10% DMSO), no cell control and vehiculum controls were also prepared in triplicates. […] Eventually, a colorimetric assay reagent CellTiter 96 AQueous One Solution Cell Proliferation Assay was added, and absorption was measured.

The subject of assay [2] is Enterococcus faecalis CCM 4224, ATCC 29212. Description: Antibacterial microdilution broth MIC, EF. Type of assay: cell-based.
The test system of assay [3] is Escherichia coli CCM 3954, ATCC 25922. The assay can be described thus: Antibacterial microdilution broth MIC, EC. Type of assay: cell-based.
Assay [4] deals with Acinetobacter baumannii DSM 30007, ATCC 19606. Description: Antibacterial microdilution broth MIC, ACI. Type of assay: cell-based.
Assay [5] relates to Pseudomonas aeruginosa CCM 3955, ATCC 27853. Description: Antibacterial microdilution broth MIC, PA. Type of assay: cell-based.
The subject of assay [6] is Candida albicans CCM 8320, ATCC 24433. Description: Antifungal microdilution broth MIC, CA.
Assay [7] relates to Candida krusei CCM 8271, ATCC 6258. The assay can be described thus: Antifungal microdilution broth MIC, CK. As to conditions: Pichia kudriavzevii.
For assay [8], the system named is Candida parapsilosis CCM 8260, ATCC 22019. Description: Antifungal microdilution broth MIC, CP. As to conditions: Lodderomyces parapsilosis.
Assay [9] deals with Aspergillus fumigatus ATCC 204305. Description: Antifungal microdilution broth MIC, AF.
The test system of a further assay is A498 cell line. The assay can be described thus: Cytotoxicity CellTiter 96, A498. The following applies: Homo sapiens, 24 h incubation. Type of assay: cell-based. How it is done:
as §1
(§4) Cytotoxicity determination […]
as §2
(§5) in triplicates according to their solubility. Simultaneously, the controls representing 100% cell viability, 0% cell viability (the cells treated with 10% DMSO), no cell control and vehiculum controls were also […]
the reagent from the kit CellTiter 96 AQueous One Solution Cell Proliferation Assay (CellTiter 96; PROMEGA, Fitchburg, USA) was added. After 2h incubation at 37 °C, absorbance of samples was recorded at 490 nm (TECAN, Infinita M200, Austria). A standard toxicological parameter IC50 was calculated by nonlinear regression from a semilogarithmic plot of incubation concentration versus percentage of absorbance relative to untre ated controls using GraphPad Prism 8 software.
as §3
(§6) Kaighn's Modification of Ham's F-12 Medium and human glioblastoma astrocytoma U-87 MG cell line, […]
Glucose medium. All cultures were supplemented with 10% fetal bovine serum, 1% non-essential amino acids (A498, HK-2 and U-87 MG), 1% sodium pyruvate (A498, HK-2 and U-87 MG) and 2 mM L-glutamine. […]

Another assay deals with U‐87 MG cell line. Description: Cytotoxicity CellTiter 96, U-87 MG. Type of assay: cell-based. The following applies: Homo sapiens, 24 h incubation. How it is done: as §1, §4, §2, §5
the reagent from the kit CellTiter 96 AQueous One Solution Cell Proliferation Assay (CellTiter 96; PROMEGA, Fitchburg, USA) was added. After 2h incubation at 37 °C, absorbance of samples was recorded at 490 nm (TECAN, Infinita M200, Austria). A standard toxicological parameter IC50 was calculated by nonlinear regression from a semilogarithmic plot of incubation concentration versus percentage of absorbance relative to untre ated controls using GraphPad Prism 8 software. […]
as §6
Glucose medium. All cultures were supplemented with 10% fetal bovine serum, 1% non-essential amino acids (A498, HK-2 and U-87 MG), 1% sodium pyruvate (A498, HK-2 and U-87 MG) and 2 mM L-glutamine. All cell culture consumables were purchased from Merck (Darmstadt, Germany). The cells

Where [10] appears, read: ATCC204305, 24 h, read-out: MIC AF 24h.
Where [11] appears, read: ATCC204305, 48 h, read-out: MIC AF 48h.

Regarding `COc1ccc(CC(=O)Nc2cccc(Cl)n2)cc1` [Compound 12, 2-(4-methoxyphenyl)-N-(6-chloropyridin-2-yl)acetamide], the minimum inhibitory concentration (MIC) in assay [1] is 62.5 µg/mL (≈ 226 µM); in assay [2] (24 h, read-out: MIC EF 24h), 500 µM (≈ 138 µg/mL); in assay [2] (48 h, read-out: MIC EF 48h), 500 µM (≈ 138 µg/mL); in assay [3] (24 h, read-out: MIC EC 24h) it was above 500 µM; in [3] (48 h, read-out: MIC EC 48h), above 500 µM; in [4] (24 h, read-out: MIC ACI 24h) it was above 500 µM. For the same compound, the MIC in assay [4] (48 h, read-out: MIC ACI 48h) is above 500 µM; in assay [5] (24 h, read-out: MIC PA 24h) it was above 500 µM; in [5] (48 h, read-out: MIC PA 48h) it was above 500 µM; in assay [6] (24 h, read-out: MIC CA 24h) it was above 500 µM; in assay [6] (48 h, read-out: MIC CA 48h), above 500 µM; in assay [7] (24 h, read-out: MIC CK 24h), above 500 µM. For the same compound, the MIC is above 500 µM in assay [7] (48 h, read-out: MIC CK 48h); above 500 µM in assay [8] (24 h, read-out: MIC CP 24h); above 500 µM in assay [8] (48 h, read-out: MIC CP 48h); above 500 µM in [9] (setting [10]); above 500 µM in assay [9] (setting [11]). The same compound gave an IC50 in the assay on HK‐2 cell line above 250 µM.

With `O=C(Cc1ccccc1C(F)(F)F)Nc1cccc(Cl)n1` [Compound 24], the MIC was above 500 µg/mL in [1]; above 500 µM in assay [2] (24 h, read-out: MIC EF 24h); above 500 µM in [2] (48 h, read-out: MIC EF 48h); above 500 µM in assay [3] (24 h, read-out: MIC EC 24h); above 500 µM in assay [3] (48 h, read-out: MIC EC 48h); above 500 µM in [4] (24 h, read-out: MIC ACI 24h). Moreover, the MIC in [4] (48 h, read-out: MIC ACI 48h) was above 500 µM; in [5] (24 h, read-out: MIC PA 24h), above 500 µM; in assay [5] (48 h, read-out: MIC PA 48h), above 500 µM; in assay [6] (24 h, read-out: MIC CA 24h) it was above 500 µM; in assay [6] (48 h, read-out: MIC CA 48h), above 500 µM; in assay [7] (24 h, read-out: MIC CK 24h) it was above 500 µM. Moreover, the MIC was above 500 µM in assay [7] (48 h, read-out: MIC CK 48h); above 500 µM in [8] (24 h, read-out: MIC CP 24h); above 500 µM in [8] (48 h, read-out: MIC CP 48h); above 500 µM in assay [9] (setting [10]); above 500 µM in assay [9] (setting [11]). For the same compound, the IC50 in the assay on A498 cell line was 278 µM; with U‐87 MG cell line, above 250 µM; in the assay on HK‐2 cell line, 247 µM.

Consider `O=C(Cc1cccc(C(F)(F)F)c1)Nc1ccc(Cl)cn1` [Compound 26], for which the MIC in [1] was above 500 µg/mL; in assay [2] (24 h, read-out: MIC EF 24h), above 500 µM; in [2] (48 h, read-out: MIC EF 48h), above 500 µM; in [3] (24 h, read-out: MIC EC 24h), above 500 µM; in assay [3] (48 h, read-out: MIC EC 48h), above 500 µM; in assay [4] (24 h, read-out: MIC ACI 24h), above 500 µM. Further, the MIC in assay [4] (48 h, read-out: MIC ACI 48h) was above 500 µM; in [5] (24 h, read-out: MIC PA 24h), above 500 µM; in assay [5] (48 h, read-out: MIC PA 48h) it was above 500 µM; in [6] (24 h, read-out: MIC CA 24h), above 500 µM; in assay [6] (48 h, read-out: MIC CA 48h), above 500 µM; in assay [7] (24 h, read-out: MIC CK 24h), above 500 µM. The MIC is above 500 µM in assay [7] (48 h, read-out: MIC CK 48h); above 500 µM in assay [8] (24 h, read-out: MIC CP 24h); above 500 µM in assay [8] (48 h, read-out: MIC CP 48h); above 500 µM in assay [9] (setting [10]); above 500 µM in assay [9] (setting [11]). Besides, the IC50 in the assay on A498 cell line stood at 128 µM; in the assay with U‐87 MG cell line, 158 µM; in the assay with HK‐2 cell line, 29.9 µM.

`O=C(Cc1cccc(Cl)c1)Nc1ccc(Cl)cn1` [Compound 17, 2-(3-chlorophenyl)-N-(5-chloropyridin-2-yl)acetamide]: the minimum inhibitory concentration (MIC) in assay [1] is 250 µg/mL (≈ 889 µM); in [2] (24 h, read-out: MIC EF 24h), above 500 µM; in [2] (48 h, read-out: MIC EF 48h), above 500 µM; in assay [3] (24 h, read-out: MIC EC 24h), above 500 µM; in assay [3] (48 h, read-out: MIC EC 48h), above 500 µM; in assay [4] (24 h, read-out: MIC ACI 24h), above 500 µM. In addition, the minimum inhibitory concentration (MIC) in assay [4] (48 h, read-out: MIC ACI 48h) is above 500 µM; in assay [5] (24 h, read-out: MIC PA 24h), above 500 µM; in assay [5] (48 h, read-out: MIC PA 48h), above 500 µM; in assay [6] (24 h, read-out: MIC CA 24h), above 500 µM; in assay [6] (48 h, read-out: MIC CA 48h), above 500 µM; in assay [7] (24 h, read-out: MIC CK 24h), above 500 µM. For the same compound, the MIC in assay [7] (48 h, read-out: MIC CK 48h) is above 500 µM; in assay [8] (24 h, read-out: MIC CP 24h) it was above 500 µM; in [8] (48 h, read-out: MIC CP 48h), above 500 µM; in assay [9] (setting [10]) it was above 500 µM; in assay [9] (setting [11]) it was above 500 µM. In addition, the IC50 in the assay on A498 cell line was 135 µM; in the assay on U‐87 MG cell line, 161 µM; in the assay on HK‐2 cell line, 138 µM.
